The results in this text go back to ChEMBL document CHEMBL5604063, “ASAP - DENV-2 NS2B-NS3 protease fluorescence dose response” (2024).

Assay [1] addresses T1, Genome polyprotein (dengue virus type 2, UniProt P29990). Format: functional, Thailand/16681/1984.
The target of assay [2] is T1, Genome polyprotein. Format: functional, Thailand/16681/1984. This is another data set of the same source.

“And” between values parts separate entries of the source, which are not always exact repeats. Equal entries are not always repeated. Bounds are passed on as bounds.

T1 sequence (P29990 1346-1475 limits assumed): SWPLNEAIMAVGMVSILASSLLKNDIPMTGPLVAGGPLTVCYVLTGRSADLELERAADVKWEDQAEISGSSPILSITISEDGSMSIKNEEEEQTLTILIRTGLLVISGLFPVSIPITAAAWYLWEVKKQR
T1 sequence (P29990 1476-2093 limits assumed): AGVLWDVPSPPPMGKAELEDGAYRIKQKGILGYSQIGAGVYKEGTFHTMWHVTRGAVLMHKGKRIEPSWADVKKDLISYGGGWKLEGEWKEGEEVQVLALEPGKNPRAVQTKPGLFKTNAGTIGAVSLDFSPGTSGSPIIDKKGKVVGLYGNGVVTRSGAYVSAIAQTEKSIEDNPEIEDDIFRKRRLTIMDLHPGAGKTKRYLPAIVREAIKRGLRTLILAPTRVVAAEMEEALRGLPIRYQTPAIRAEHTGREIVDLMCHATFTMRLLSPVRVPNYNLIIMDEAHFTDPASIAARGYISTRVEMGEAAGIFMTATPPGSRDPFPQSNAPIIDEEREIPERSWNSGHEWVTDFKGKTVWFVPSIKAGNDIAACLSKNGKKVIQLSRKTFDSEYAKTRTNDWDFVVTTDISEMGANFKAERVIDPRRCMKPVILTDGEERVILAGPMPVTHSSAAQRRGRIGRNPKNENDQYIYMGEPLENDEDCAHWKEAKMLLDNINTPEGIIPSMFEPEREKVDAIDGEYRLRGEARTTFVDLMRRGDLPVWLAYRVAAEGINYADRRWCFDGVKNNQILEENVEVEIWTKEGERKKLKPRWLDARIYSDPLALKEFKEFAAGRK

As a reminder, the IC50 is the concentration that gives 50% inhibition. In the case of `CCn1c(=O)c(N2CC[C@H](CO)C2)nc2ccc(C(N)=O)cc21`, the figures for the IC50 in assay [1] and in assay [2] were 81.7 µM and over 100 µM, respectively.

Turning to `O=C(Nc1cc(Cl)cc(C(=O)Nc2ccc3c(c2)C[C@H](O)C3)c1)OCc1ccccc1`, the IC50 in assay [1] is over 99.5 µM; in assay [2], over 100 µM.

Regarding `CNC(=O)C[C@H](Nc1ccccn1)c1cc(Cl)cc(Br)c1`, the IC50 in assay [1] is over 99.5 µM; in assay [2], over 100 µM.

With `CCn1c(=O)c(N2CC[C@H](CO)C2)nc2cc(C(N)=O)ccc21`, the IC50 in assay [1] is over 99.5 µM; in assay [2], over 100 µM.

For the compound `O=C(Nc1cc(Cl)cc(C(=O)Nc2ccc(S(=O)(=O)N3CCNCC3)cc2)c1)OCc1ccccc1`, the IC50 was over 99.5 µM in assay [1] and over 100 µM in assay [2].

As for `Cc1c(C(=O)Nc2cccc(CN)c2)cc(C2CC2)n1C`, the IC50 in assay [1] was over 99.5 µM; in assay [2] it was over 100 µM.

For `O=C(Nc1cc(Cl)cc(C(=O)Nc2ccc3c(c2)OCO3)c1)OCc1ccccc1`, the IC50 in assay [1] is over 99.5 µM; in assay [2], over 100 µM.

In the case of `NCc1cccc(NC(=O)c2cc(Cl)cc([C@H]3CCCCN3)c2)c1`, the half-maximal inhibitory concentration (IC50) in assay [1] was over 99.5 µM; in assay [2] it was over 100 µM.

As for `CS(=O)(=O)c1cc(CN)cc(NC(=O)c2cc(Cl)cc(NC(=O)OCc3ccccc3)c2)c1`, the IC50 is over 99.5 µM in assay [1] and over 100 µM in assay [2].

As for `CNC(=O)[C@H](Nc1cccc(N)n1)c1cc(Cl)cc(CN)c1`, the values for the IC50 in assay [1] and in assay [2] were over 99.5 µM and over 100 µM, respectively.

Turning to `Cc1c(C(=O)Nc2cccc(CN)c2)cc(C(C)C)n1C`, the IC50 in assay [1] is over 99.5 µM; in assay [2], over 100 µM.

`NCCNS(=O)(=O)c1ccc(NC(=O)c2cc(Cl)cc(NC(=O)OCc3ccccc3)c2)cc1`: the values for the IC50 in assay [1] and in assay [2] were 33.6 µM and over 100 µM, respectively.

With `O=C(Nc1cc(Cl)cc(C(=O)Nc2ccc(C3CCNCC3)cc2)c1)OCc1ccccc1`, the IC50 in assay [1] is 15.7 µM and 21.1 µM; in assay [2] it was 41.3 µM.

Regarding `CCc1cc(C(=O)Nc2cccc(CN)c2)sc1C`, the IC50 in assay [1] was over 99.5 µM; in assay [2] it was over 100 µM.

Regarding `Cc1onc(C(=O)Nc2cccc(CN)c2)c1COc1cccc(F)c1`, the concentration for half-maximal inhibition (IC50) in assay [1] was over 99.5 µM; in assay [2] it was over 100 µM.

With `NCc1ccc(C#CCO)c(NC(=O)c2cc(Cl)cc(NC(=O)OCc3ccccc3)c2)c1`, the half-inhibitory concentration (IC50) in assay [1] was 38 µM; in assay [2] it was over 100 µM.

For the compound `Cc1nn(CCO)c(C(F)F)c1C(=O)Nc1cccc(CN)c1`, the values for the half-maximal inhibitory concentration (IC50) in assay [1] and in assay [2] were over 99.5 µM and over 100 µM, respectively.

For `NCc1cccc(NC(=O)c2c(C(F)(F)F)nc3n2CCCC3)c1`, the results for the IC50 in assay [1] and in assay [2] were over 99.5 µM and over 100 µM, respectively.

`Cc1cnnc(C(=O)Nc2cccc(CN)c2)c1`: the results for the IC50 in assay [1] and in assay [2] were over 99.5 µM and over 100 µM, respectively.

With `N#CC[C@H](N)c1cccc(NC(=O)c2cc(Cl)cc(NC(=O)OCc3ccccc3)c2)c1`, the IC50 in assay [1] is over 99.5 µM; in assay [2], over 100 µM.

As for `CCn1c(=O)c(N2CC[C@H](CO)C2)nc2ccc(C(=O)NCc3ccccc3)cc21`, the IC50 is 95.1 µM in assay [1] and over 100 µM in assay [2].

`O=C(Nc1cc(Cl)cc(C(=O)Nc2ccc(OC3CNC3)cc2)c1)OCc1ccccc1`: the half-maximal inhibitory concentration (IC50) in assay [1] is 64.2 µM; in assay [2], over 100 µM.

Take `Cc1nc(N2CCOCC2)sc1CC(=O)Nc1cccc(CN)c1`: the half-inhibitory concentration (IC50) was over 99.5 µM in assay [1] and over 100 µM in assay [2].

With `NCCCCc1ccc(NC(=O)c2cc(Cl)cc(NC(=O)OCc3ccccc3)c2)cc1`, the IC50 in assay [1] is 11.8 µM and 19.5 µM; in assay [2], 33.2 µM.

As for `CS(=O)(=O)c1ccc(CN)cc1NC(=O)c1cc(Cl)cc(NC(=O)OCc2ccccc2)c1`, the IC50 in assay [1] was over 99.5 µM; in assay [2], over 100 µM.

As for `O=C(O)CCc1ccc(NC(=O)c2cc(Cl)cc(NC(=O)OCc3ccccc3)c2)cc1`, the figures for the IC50 in assay [1] and in assay [2] were 42.8 µM and 17.7 µM, respectively.

`CC(C)c1occ(C(F)(F)F)c1C(=O)Nc1cccc(CN)c1`: the IC50 in assay [1] is over 99.5 µM; in assay [2], over 100 µM.

As for `NCc1nc(-c2ccc(NC(=O)c3cc(Cl)cc(NC(=O)OCc4ccccc4)c3)cc2)n[nH]1`, the values for the IC50 in assay [1] and in assay [2] were 48.2 µM and over 100 µM, respectively.

`NCc1cccc(NC(=O)[C@H]2CC(=O)Nc3ccc(Br)cc32)c1`: the results for the IC50 in assay [1] and in assay [2] were over 99.5 µM and over 100 µM, respectively.

As for `Cn1nc(C(=O)Nc2cccc(CN)c2)cc1C1CC1`, the results for the IC50 in assay [1] and in assay [2] were over 99.5 µM and over 100 µM, respectively.

As for `NC[C@H]1C[C@H]1NC(=O)c1cc(Cl)cc(NC(=O)OCc2ccccc2)c1`, the IC50 in assay [1] was over 99.5 µM; in assay [2], over 100 µM.

`CCc1onc(C2CCOCC2)c1C(=O)Nc1cccc(CN)c1`: the half-maximal inhibitory concentration (IC50) is over 99.5 µM in assay [1] and over 100 µM in assay [2].

`O=C(Nc1cc(Cl)cc(C(=O)Nc2ccc(N3CCNCC3)c(F)c2)c1)OCc1ccccc1`: the IC50 in assay [1] is 74.1 µM; in assay [2], over 100 µM.

As for `O=C(Nc1cc(Cl)cc(C(=O)Nc2cccc(C(=O)O)c2)c1)OCc1ccccc1`, the IC50 in assay [1] is 42.7 µM; in assay [2], 29.1 µM and 25.3 µM.

On to `NC[C@H]1C[C@@H]1NC(=O)c1cc(Cl)cc(NC(=O)OCc2ccccc2)c1`, for which the values for the concentration for half-maximal inhibition (IC50) in assay [1] and in assay [2] were over 99.5 µM and over 100 µM, respectively.

Take `O=C(Nc1cc(Cl)cc(C(=O)Nc2ccc3c(c2)COC3)c1)OCc1ccccc1`: the IC50 was over 99.5 µM in assay [1] and over 100 µM in assay [2].

Take `O=C(Nc1cc(Cl)cc(C(=O)Nc2ccc(N3CCCNCC3)cc2)c1)OCc1ccccc1`: the IC50 in assay [1] is 27.6 µM; in assay [2], over 100 µM.

Regarding `NCc1cccc(NC(=O)[C@H]2CCCN(C(=O)CC3CC3)C2)c1`, the IC50 in assay [1] was over 99.5 µM; in assay [2], over 100 µM.

Turning to `O=C(Nc1cc(Cl)cc(C(=O)Nc2ccc([C@H]3CCNC3)cc2)c1)OCc1ccccc1`, the IC50 in assay [1] was 19.5 µM and 24.6 µM; in assay [2], 39.4 µM.

As to `CS(=O)(=O)c1ccc(NC(=O)c2cc(Cl)cc(NC(=O)OCc3ccccc3)c2)cc1`, the results for the IC50 in assay [1] and in assay [2] were over 99.5 µM and over 100 µM, respectively.

Consider `NCc1cc(NC(=O)c2cc(Cl)cc(NC(=O)OCc3ccccc3)c2)cc(C2CC2)c1`, for which the half-maximal inhibitory concentration (IC50) in assay [1] is 72 µM; in assay [2], over 100 µM.

For the compound `O=C(Nc1cc(Cl)cc(C(=O)Nc2ccc(CC3CCNCC3)cc2)c1)OCc1ccccc1`, the 50% inhibitory concentration (IC50) in assay [1] is 14 µM and 17.3 µM; in assay [2], 33.3 µM.

Consider `CNC(=O)C[C@H](Nc1ccccn1)c1cc(Cl)cc(CN)c1`, for which the IC50 in assay [1] is over 99.5 µM; in assay [2], over 100 µM.

For the compound `O=C(Nc1cc(Cl)cc(C(=O)Nc2ccc3c(c2)CCNC3)c1)OCc1ccccc1`, the IC50 in assay [1] was 50 µM and 60.1 µM; in assay [2], over 100 µM.

On to `NCc1cccc(NC(=O)c2cc(Cl)cc(Cl)c2OCc2ccccc2)c1`, for which the IC50 in assay [1] was found to be 44.7 µM; in assay [2] it was 42.6 µM.

`O=C(Nc1cc(Cl)cc(C(=O)Nc2ccc(C3CNC3)cc2)c1)OCc1ccccc1`: the IC50 is 39.2 µM in assay [1] and over 100 µM in assay [2].

Take `O=C(Nc1cc(Cl)cc(C(=O)Nc2ccc3c(c2)C(=O)OC3)c1)OCc1ccccc1`: the IC50 in assay [1] is over 99.5 µM; in assay [2] it was over 100 µM.

On to `Cc1[nH]c2ccc(Br)cc2c1CC(=O)Nc1cccc(CN)c1`, for which the figures for the IC50 in assay [1] and in assay [2] were over 99.5 µM and over 100 µM, respectively.

As for `O=C(O)Cc1cccc(NC(=O)c2cc(Cl)cc(NC(=O)OCc3ccccc3)c2)c1`, the IC50 in assay [1] worked out at 74.6 µM; in assay [2], 40 µM.

As to `NCc1cccc(NC(=O)c2cc(C(F)(F)F)cnc2N2CCOCC2)c1`, the figures for the IC50 in assay [1] and in assay [2] were over 99.5 µM and over 100 µM, respectively.
